± gives the uncertainty stated by the source.
Assay: xn = mol fraction of the nth substance listed

OCCO + O
Details	viscosity [mPa·s]
293.15 K, 100 kPa, x1 = 0.3	5.035 ± 0.015
293.15 K, 101 kPa, x1 = 0.0744	1.724 ± 0.023
293.15 K, 101 kPa, x1 = 0.1209	2.258 ± 0.03
293.15 K, 101.3 kPa, x1 = 0.031	1.28 ± 0.03
293.15 K, 101.3 kPa, x1 = 0.068	1.79 ± 0.05
293.15 K, 101.3 kPa, x1 = 0.11	1.9 ± 0.05
293.15 K, 101.3 kPa, x1 = 0.14	2.47 ± 0.07
293.15 K, 101.3 kPa, x1 = 0.16	2.8 ± 0.08
293.15 K, 101.3 kPa, x1 = 0.19	3.14 ± 0.08
293.15 K, 101.3 kPa, x1 = 0.22	3.66 ± 0.1
293.15 K, 101.3 kPa, x1 = 0.26	4.09 ± 0.11
293.15 K, 101.3 kPa, x1 = 0.3	4.68 ± 0.13
293.15 K, 101.3 kPa, x1 = 0.4	6.5 ± 0.18
293.15 K, 101.3 kPa, x1 = 0.54	9.03 ± 0.24
293.15 K, 101.3 kPa, x1 = 0.72	13.6 ± 0.4
298.15 K, 101 kPa, x1 = 0.0414	1.22 ± 0.01
298.15 K, 101 kPa, x1 = 0.118	1.97 ± 0.02
298.15 K, 101 kPa, x1 = 0.1553	2.36 ± 0.02
298.15 K, 101 kPa, x1 = 0.3385	4.73 ± 0.03
298.15 K, 101 kPa, x1 = 0.3521	4.96 ± 0.04
298.15 K, 101 kPa, x1 = 0.4133	5.94 ± 0.04
298.15 K, 101 kPa, x1 = 0.5333	7.96 ± 0.06
298.15 K, 101 kPa, x1 = 0.6376	9.9 ± 0.07
298.15 K, 101 kPa, x1 = 0.7762	12.56 ± 0.09
298.15 K, 101 kPa, x1 = 0.8769	14.49 ± 0.1
298.15 K, 101 kPa, x1 = 0.907	15.05 ± 0.1
298.15 K, 101 kPa, x2 = 0.0034	16.94 ± 0.12
298.15 K, 101.33 kPa, x1 = 0.1753	2.58 ± 0.07
298.15 K, 101.33 kPa, x1 = 0.3316	4.73 ± 0.12
298.15 K, 101.33 kPa, x1 = 0.5615	8.36 ± 0.22
303.15 K, 101.3 kPa, x1 = 0.031	0.92 ± 0.03
303.15 K, 101.3 kPa, x1 = 0.068	1.27 ± 0.03
303.15 K, 101.3 kPa, x1 = 0.11	1.43 ± 0.04
303.15 K, 101.3 kPa, x1 = 0.14	1.87 ± 0.05
303.15 K, 101.3 kPa, x1 = 0.16	2.09 ± 0.06
303.15 K, 101.3 kPa, x1 = 0.19	2.34 ± 0.06
303.15 K, 101.3 kPa, x1 = 0.22	2.7 ± 0.07
303.15 K, 101.3 kPa, x1 = 0.26	2.99 ± 0.08
303.15 K, 101.3 kPa, x1 = 0.3	3.38 ± 0.09
303.15 K, 101.3 kPa, x1 = 0.4	4.59 ± 0.12
303.15 K, 101.3 kPa, x1 = 0.54	6.29 ± 0.17
303.15 K, 101.3 kPa, x1 = 0.72	9.22 ± 0.25
303.15 K, 101.33 kPa, x1 = 0.0003	0.778 ± 0.011
303.15 K, 101.33 kPa, x1 = 0.0009	0.781 ± 0.011
303.15 K, 101.33 kPa, x1 = 0.0059	0.808 ± 0.011
303.15 K, 101.33 kPa, x1 = 0.01	0.834 ± 0.011
303.15 K, 101.33 kPa, x1 = 0.0136	0.856 ± 0.012
303.15 K, 101.33 kPa, x1 = 0.0616	1.18 ± 0.015
303.15 K, 101.33 kPa, x1 = 0.1054	1.529 ± 0.02
303.15 K, 101.33 kPa, x1 = 0.1634	2.03 ± 0.025
303.15 K, 101.33 kPa, x1 = 0.1935	2.348 ± 0.029
303.15 K, 101.33 kPa, x1 = 0.2969	3.435 ± 0.042
303.15 K, 101.33 kPa, x1 = 0.3955	4.638 ± 0.056
303.15 K, 101.33 kPa, x1 = 0.4982	6 ± 0.069
303.15 K, 101.33 kPa, x1 = 0.5873	7.264 ± 0.08
303.15 K, 101.33 kPa, x1 = 0.6734	8.539 ± 0.092
303.15 K, 101.33 kPa, x1 = 0.7944	10.39 ± 0.11
303.15 K, 101.33 kPa, x1 = 0.8719	11.58 ± 0.12
303.15 K, 101.33 kPa, x1 = 0.941	12.69 ± 0.13
303.15 K, 101.33 kPa, x2 = 0.0134	13.35 ± 0.14
308.15 K, 101.33 kPa, x1 = 0.0003	0.706 ± 0.01
308.15 K, 101.33 kPa, x1 = 0.0009	0.709 ± 0.01
308.15 K, 101.33 kPa, x1 = 0.0059	0.733 ± 0.01
308.15 K, 101.33 kPa, x1 = 0.01	0.752 ± 0.01
308.15 K, 101.33 kPa, x1 = 0.0136	0.774 ± 0.011
308.15 K, 101.33 kPa, x1 = 0.0616	1.044 ± 0.014
308.15 K, 101.33 kPa, x1 = 0.1054	1.326 ± 0.017
308.15 K, 101.33 kPa, x1 = 0.1634	1.756 ± 0.022
308.15 K, 101.33 kPa, x1 = 0.1935	2.016 ± 0.025
308.15 K, 101.33 kPa, x1 = 0.2969	2.919 ± 0.036
308.15 K, 101.33 kPa, x1 = 0.3955	3.905 ± 0.047
308.15 K, 101.33 kPa, x1 = 0.4982	5.004 ± 0.06
308.15 K, 101.33 kPa, x1 = 0.5873	6.04 ± 0.069
308.15 K, 101.33 kPa, x1 = 0.6734	7.077 ± 0.079
308.15 K, 101.33 kPa, x1 = 0.7944	8.555 ± 0.092
308.15 K, 101.33 kPa, x1 = 0.8719	9.501 ± 0.1
308.15 K, 101.33 kPa, x1 = 0.941	10.35 ± 0.11
308.15 K, 101.33 kPa, x2 = 0.2029	8.051 ± 0.17
308.15 K, 101.33 kPa, x2 = 0.3005	6.899 ± 0.15
308.15 K, 101.33 kPa, x2 = 0.3986	5.846 ± 0.13
308.15 K, 101.33 kPa, x2 = 0.5012	4.779 ± 0.11
308.15 K, 101.33 kPa, x2 = 0.5999	3.798 ± 0.088
308.15 K, 101.33 kPa, x2 = 0.6987	2.866 ± 0.067
308.15 K, 101.33 kPa, x2 = 0.8008	1.998 ± 0.048
308.15 K, 101.33 kPa, x2 = 0.8947	1.315 ± 0.033
313.15 K, 101.3 kPa, x1 = 0.031	0.8 ± 0.02
313.15 K, 101.3 kPa, x1 = 0.068	1.04 ± 0.03
313.15 K, 101.3 kPa, x1 = 0.11	1.08 ± 0.03
313.15 K, 101.3 kPa, x1 = 0.14	1.46 ± 0.04
313.15 K, 101.3 kPa, x1 = 0.16	1.61 ± 0.04
313.15 K, 101.3 kPa, x1 = 0.19	1.8 ± 0.05
313.15 K, 101.3 kPa, x1 = 0.22	2.04 ± 0.05
313.15 K, 101.3 kPa, x1 = 0.3	2.54 ± 0.07
313.15 K, 101.3 kPa, x1 = 0.4	3.4 ± 0.09
313.15 K, 101.3 kPa, x1 = 0.54	4.58 ± 0.12
313.15 K, 101.3 kPa, x1 = 0.72	6.53 ± 0.17
323.15 K, 101.3 kPa, x1 = 0.031	0.67 ± 0.02
323.15 K, 101.3 kPa, x1 = 0.068	0.82 ± 0.02
323.15 K, 101.3 kPa, x1 = 0.11	0.9 ± 0.02
323.15 K, 101.3 kPa, x1 = 0.14	1.21 ± 0.03
323.15 K, 101.3 kPa, x1 = 0.16	1.3 ± 0.03
323.15 K, 101.3 kPa, x1 = 0.19	1.44 ± 0.04
323.15 K, 101.3 kPa, x1 = 0.22	1.62 ± 0.04
323.15 K, 101.3 kPa, x1 = 0.26	1.81 ± 0.05
323.15 K, 101.3 kPa, x1 = 0.3	1.97 ± 0.05
323.15 K, 101.3 kPa, x1 = 0.4	2.59 ± 0.07
323.15 K, 101.3 kPa, x1 = 0.54	3.46 ± 0.09
323.15 K, 101.3 kPa, x1 = 0.72	4.83 ± 0.13

From the CheMixHub viscosity set
